This is an account of results in paper PMC10461224, “Development of an Affinity-Based Probe to Profile Endogenous Human Adenosine A3 Receptor Expression” (Journal of Medicinal Chemistry, 2023).

Marks after values point to notes of the source that are not given here. Bounds are passed on as bounds.

What all share (assay type): binding
Test [1] has as its target T1, hA1AR (Homo sapiens, UniProt P30542).
T1 construct: expressed in transfected cells; host or cells: CHO cells (CHOhA1AR), gift of Prof; S.J. Hill, University of Nottingham; membrane fractions
T1 sequence (P30542 1-326): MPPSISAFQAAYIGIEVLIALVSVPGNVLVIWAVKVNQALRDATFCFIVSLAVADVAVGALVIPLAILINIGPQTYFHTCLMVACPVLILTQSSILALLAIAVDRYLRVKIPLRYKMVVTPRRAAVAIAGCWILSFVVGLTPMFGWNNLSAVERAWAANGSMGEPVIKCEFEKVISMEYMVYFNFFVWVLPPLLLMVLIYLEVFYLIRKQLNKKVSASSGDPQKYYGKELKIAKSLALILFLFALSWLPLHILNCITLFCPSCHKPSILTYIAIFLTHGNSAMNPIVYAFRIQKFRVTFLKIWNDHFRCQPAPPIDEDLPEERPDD
Put plainly: Full curve displacement assays on the hA1AR. Conditions: from full curve displacement assays (Table S1). The method, then:
The affinity of the synthesized AfBPs was determined in radioligand binding experiments. First, single concentration displacement assays were carried out on all four human adenosine receptors, using a final probe concentration of 1 μM (Table 1). […] This quick screen indicated a good selectivity toward the hA3AR over the other human ARs, a trend that was also observed in the case of the parent compound.[34] Next, the ‘apparent’ affinities (depicted as pKi values) toward the hA3AR were determined using full curve displacement assays. To study the presumable covalent mode of action, the apparent affinity was determined with (pre-4 h) and without (pre-0 h) 4 h of pre-incubation of AfBP with hA3AR, prior to addition of radioligand. […] This difference in affinity was reflected in a shift in apparent pKi. […] To further investigate selectivity toward the hA3AR over the hA1AR, full curve displacement assays were carried out on the hA1AR.
(§1) […]. Single point displacement values shown are mean percentages of two individual experiments performed in duplicate. All pKi values shown are mean values ± SEM of three individual experiments performed in duplicate. Statistical analysis was performed using a one-way ANOVA test with multiple comparisons (****p < 0.0001).

The target in test [2] is T2, hA3AR (Homo sapiens, UniProt P0DMS8).
T2 construct: expressed in transfected cells; host or cells: CHO cells (CHOhA3AR), gift of Prof; K.N. Klotz, University of Würzburg; used as membrane fractions or live cells
T2 sequence (P0DMS8 1-318): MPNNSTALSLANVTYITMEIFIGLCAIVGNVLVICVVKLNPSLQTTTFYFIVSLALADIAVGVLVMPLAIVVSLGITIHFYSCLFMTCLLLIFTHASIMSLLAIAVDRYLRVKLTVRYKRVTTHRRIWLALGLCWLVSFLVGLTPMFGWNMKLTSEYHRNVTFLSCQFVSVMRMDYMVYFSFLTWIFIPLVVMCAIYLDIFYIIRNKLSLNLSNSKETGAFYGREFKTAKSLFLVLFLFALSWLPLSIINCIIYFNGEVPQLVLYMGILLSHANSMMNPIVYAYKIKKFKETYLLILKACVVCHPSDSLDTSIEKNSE
Description: Full curve radioligand displacement assay on the adenosine A3 receptor, [3H]PSB-11. Conditions: mean ± SEM, n=3; for apparent pKi (pre-0 h) / apparent pKi (pre-4 h): CHO-hA3AR membranes, 25 °C; for apparent pKi (pre-0 h): 0.5 h co-incubation of probe and radioligand, no pre-incubation; for apparent pKi (pre-4 h): 4 h pre-incubation with probe then 0.5 h co-incubation with radioligand; for fold change, ratio Ki(0 h)/Ki(4 h): hA3AR. The method, then:
Membrane aliquots containing 15 μg of protein (CHOhA3AR) were resuspended in assay buffer (50 mM Tris–HCl, pH 8.0, 10 mM MgCl2, 1 mM EDTA, 0.01% CHAPS). The competing ligand (concentrations ranging from 0.1 to 1000 nM) was added and pre-incubated with the membrane fractions for either 0 or 4 h. The radioligand (10 nM [^3H]PSB-11) was then added and incubated with the samples in a total volume of 100 μL of assay buffer for 30 min at 25 °C. Nonspecific binding was determined in the presence of 100 μM NECA. Incubations were terminated by rapid vacuum filtration through prewetted 96-well GF/C filter plates using a PerkinElmer Filtermate harvester. Filters were subsequently washed 12 times with ice-cold wash buffer (50 mM Tris–HCl, pH 8.0, 10 mM MgCl2, 1 mM EDTA). The plates were dried at 55 °C, and MicroscintTM-20 cocktail (PerkinElmer) was added subsequently. After 3 h, the filter-bound radioactivity was determined using a Tri-Carb 2810TR Liquid Scintillation Analyzer (PerkinElmer).
as §1
(In general: In a radioligand displacement assay an active substance lowers the binding of a labelled ligand.)

For test [3], the target named is T2, hA3AR. Put plainly: SDS-PAGE labeling in CHO membrane fractions, click to Cy5-N3. Particulars: 50 nM probe, compared with 5 and 13. The method, then: Membrane fractions were prepared as mentioned above and diluted to a concentration of 1 μg/μL. 18 μL of membrane fractions from either CHOhA3AR or CHO-K1 cells were taken. 1 μL of competing ligand (PSB-11, unless noted otherwise) was added (final concentration: 1 μM in 0.05% DMSO in assay buffer), and the samples were shaken for 30 min at rt. 1 μL of affinity-based probe was then added (final concentration: 50 nM in 0.05% DMSO in assay buffer, unless noted otherwise), and the samples were shaken for 1 h at rt. Deglycosylation was initiated by addition of 0.5 μL of PNGaseF (5 U), 0.5 μL of MilliQ water for the control samples, and the samples were shaken for 1 h at rt. The click mix was freshly prepared by adding together 5 parts 100 mM CuSO4 in MilliQ, 3 parts 1 M sodium ascorbate (NaAsc) in MilliQ, 1 part 100 mM Tris(3-hydroxypropyltriazolylmethyl)amine (THPTA) in MilliQ, and 1 part 100 μM Cy5-N3 in DMSO. […] In-gel fluorescence was measured on a Bio-Rad Universal Hood III using Cy3 (605/50 filter) or Cy5 (695/55 filter) settings. […]
Gel images were analyzed using Image Lab software version 6.0.1 (Bio-Rad). Quantification was done in the following manner: the area under the curve (AUC) of the bands was selected using the ‘Lane Profile’ tab and the adjusted volumes were taken. […]

As to `C#CCN(CCCn1c(=O)n(CCC)c(=O)c2c1nc1cc(OC)ccn12)C(=O)c1ccc(S(=O)(=O)F)cc1` [compound 5, 4-((3-(8-Methoxy-2,4-dioxo-3-propyl-3,4-dihydropyrido[2,1-f]purin-1(2H)-yl)propyl)(prop-2-yn-1-yl)carbamoyl)benzenesulfonyl fluoride], the “selectivity toward the hA3AR over the hA1AR” value in test [1] is over 100 fold. Moreover, in test [2], the “apparent pKi (pre-0 h)” value is recorded as 7.55 ± 0.01; the “apparent pKi (pre-4 h)” value is reported as 8.52 ± 0.05 ^d; the “fold change, ratio Ki(0 h)/Ki(4 h)” value amounted to 9.5 ± 1.0.
With `C#CCOc1ccn2c(c1)nc1c2c(=O)n(CCC)c(=O)n1CCCNC(=O)c1ccc(S(=O)(=O)F)cc1` [compound 9, 4-((3-(2,4-Dioxo-8-(prop-2-yn-1-yloxy)-3-propyl-3,4-dihydropyrido[2,1-f]purin-1(2H)-yl)propyl)carbamoyl)benzenesulfonyl fluoride], in test [1], the “selectivity toward the hA3AR over the hA1AR” value was over 17 fold. Moreover, the “off-target labeling on gel” value in test [3] was “fewer other proteins labeled”. For the same compound, in test [2], the “apparent pKi (pre-0 h)” value is given as 7.27 ± 0.07; the “apparent pKi (pre-4 h)” value is 8.40 ± 0.03 ^d; the “fold change, ratio Ki(0 h)/Ki(4 h)” value is 13.5 ± 1.2.
